Measurements as given in patent US20230257374A1, “NOVEL KRAS G12C PROTEIN INHIBITOR, PREPARATION METHOD THEREFOR, AND USE THEREOF” (INNOVENT BIOLOGICS (SUZHOU) CO., LTD., priority 2019, published 2023).
Where two headings read alike, the source gives them in different places. Each block holds one compound with its values, some of them ahead of it.

Columns and labels:
in vitro [1] = conditions: human, Caco-2, pH 7.4
Description: (§1) Drug penetration test: the Transwell culture plate was retrieved from the incubator. […] All samples were prepared in double parallel. The integrity of the cell monolayer membrane after 2 hours of incubation was assessed using leakage of fluorescein; fluorescein stock solution was diluted with HBSS (25 mM HEPES, pH 7.4) to a final concentration of 100 μM. 100 μL of fluorescein solution was added to each well of the upper Transwell plate and 300 μL of HBSS (25 mM HEPES, pH 7.4) was added to each well of the lower receiving plate; after incubation at 37° C. for 30 min, 80 μL of the solution was pipetted from the upper and lower layers of each well to a new 96-well plate.
(§2) The apparent permeability coefficients (Papp, unit: cm/s) of the compounds in Caco-2 cells were calculated from the specific concentrations at the acceptor and donor ends, and the specific calculation formula is as follows: […]
(§3) where VA represents the volume of the acceptor end solution (0.3 mL for Ap→Bl, 0.1 mL for Bl→Ap); Area represents the area of the Transwell-96 well plate (0.143 cm^2); time represents the incubation time (unit: s); [drug]acceptor represents the drug concentration (ratio of peak area to internal standard area) at the acceptor end; [drug]initial, donor represents the drug concentration at the donor end (ratio of peak area to internal standard area).
(§4) The efflux ratio was calculated as follows: […]
(§5) where Papp (B-A) represents the apparent permeability coefficient from base end to top end; Papp (A-B) represents the apparent permeability coefficient from top end to base end.

[2] = tested on: MIA PaCa-2 cell line (K-RAS G12C); test: cells; assay type: cell-based
Description: (§6) a) On day 1, seed cells were placed in T75 a flask. b) On day 3, the medium was taken out and washed once with DPBS. c) Cells were trypsinized with 2 mL TrypLE™ Express enzyme at room temperature (RT) or 37° C. until cells detached. d) 5 mL of fresh medium was added to suspend the cells, and then the suspension was centrifuged at 1000 rpm and room temperature for 5 min. e) The supernatant was discarded, and the cells were resuspended in 5 mL of fresh medium and counted using Countess™ H. f) The cells were seeded back into the T75 flask for further culture or placed into an assay plate for 3D cell proliferation assay.
(§7) The cells were seeded at a density of 600 cells/well in a 384-well plate with 40 μL of medium per well and a final DMSO concentration of 0.5%. b) On day 4, a 3D CTG reagent was added to each well, followed by shaking at room temperature for 1 h. c) The signals were recorded using Envision.
(§8) a) Robustness was examined using 0.5% DMSO and data of blank control medium: H=mean (DMSO); L=mean (medium); SD (H)=STDEV (DMSO); SD (L)=STDEV (medium);
(§9) Y=peak valley value+(peak top value−peak valley value)/(1+10^((Log IC50−X)×HillSlope));
(§10) X: logarithm of compound concentration; Y: percent inhibition (% inhibition); Peak top and peak valley values: the plateau period units are the same as Y; log IC50: the same logarithmic unit as X; HillSlope: slope coefficient or Hill slope.

[3] = tested on: H1373 cell line (K-RAS G12C); test: cells; assay type: cell-based
Description: as §6, §7, §8, §9, §10

[4] = tested on: PC-9 cell line (K-RAS wild type); test: cells; assay type: cell-based; conditions: Homo sapiens, PC-9, 96 h; 3D culture, CellTiter-Glo 3D, read on day 4
Description: as §6, §7, §8, §9, §10

KRAS G12C protein = target: T1, KRAS G12C protein (Homo sapiens, UniProt P01116, G12C); test: ERK protein phosphorylation assay (p-ERK) in H358 cells; assay type: cell-based; parameters: scale not given here; conditions: H358 cells expressing KRAS G12C protein, 3 h incubation with compound; read-out: IC50, inhibiting phosphorylation of KRAS G12C protein-mediated downstream signaling (p-ERK)
T1 construct: H358 cells (ATCC, CRL-5807) expressing KRAS G12C protein; host or cells: H358 (NCI-H358) cells
Description: The cells were cultured in a 5% CO2 cell incubator for 16 h. The serially diluted compound was added to the cell medium with Echo550 at a final DMSO concentration of 0.5%, and the incubation was continued for 3 h. Then 8% paraformaldehyde (Solarbio, P1112) was added at 40 μL/well, followed by incubation at room temperature for 20 min. After one washing with PBS, cold 100% methanol was added at 40 μL/well for permeabilization for 10 min. […] Washing with PBST was performed 3 times, with 2 min of incubation for each washing. […] Washing with PBST was performed 3 times, with 2 min of incubation for each washing. Finally, the cell culture plate was inverted and centrifuged at 1000 rpm for 1 min, after which fluorescence signals were read using Odyssey CLx.

[5] = tested on: H358 cell line (K-RAS G12C); test: cells; assay type: cell-based, human
Description: as §6, §7, §8, §9, §10

[6] = tested on: NCI-H358 tumor (K-RAS G12C mutation); assay type: in vivo, BALB/c nude mice; conditions: for Tumor regression: animals with regression / group of 8
Description: The cells were digested with trypsin-EDTA twice a week for passaging as per conventional practice. When the cell saturation reached 80%-90% and a required amount was achieved, the cells were collected and counted for later use. […] 5% DMSO/5% Solutol/90% water was used as a blank control. 3) Tumor inoculation and drug administration: BALB/c nude mice, female, 6-8 weeks old, weighing 18-20 g. The experiment started after 3-7 days of adaptive feeding. 0.1 mL of NCI-H358 cells (5×10^6 cells) were inoculated subcutaneously on the right back of each mouse. The mice were grouped for administration when the average tumor volume reached approximately 150 mm^3. The animals were weighed before administration and the tumor volume was measured. Grouping was randomly performed according to the tumor volume.
Animals were monitored daily for health and death, and routine examinations include observation of the effect of tumor growth and drug treatment on the daily performance of the animals, such as behavioral activities, food and water intake, weight changes (measured once every other day), appearance, or other abnormal conditions. Animal mortality and side effects within each group were recorded based on the number of animals in the group.
Tumor diameters were measured 2-3 times weekly using a vernier caliper.
The tumor volume was calculated as follows: […]
where a and b represent the long and short diameters of the tumor, respectively.
The anti-tumor therapeutic effect of the compound was evaluated by tumor growth inhibition rate TGI (%) or relative tumor proliferation rate T/C (%).
TGI (%) was calculated as follows: […]
T/C (%) was calculated as follows: […]
where TRTV represents the relative tumor volume of the treatment group; CRTV represents the relative tumor volume of the solvent control group.
Based on the results of tumor measurement, the relative tumor volume (RTV) was calculated as follows: […]
where V0 represents the average tumor volume measured at the time of grouping and administration (i.e., d0), Vt represents the average tumor volume in a certain measurement, and TRTV and CRTV take the data on the same day.
After the completion of the experiment, tumors were weighed, and the percentage of Tweight/Cweight was calculated, where Tweight and Cweight represent the tumor weights of the treatment group and the solvent control group, respectively.
Data calculation and analysis: T test was employed for comparison between two groups. One-way ANOVA was employed for comparison between three or more groups. If there is a significant difference in F-values, multiple comparisons should be made after ANOVA analysis. All data analyses were performed with SPSS 17.0. p<0.05 was defined as a significant difference.

[7] = Stability test in human plasma
Description: (§11) To examine the stability of the test compounds in plasma, representative compounds were selected for evaluation.
(§12) Preparation of stock solution: a test compound was dissolved in DMSO to prepare a 1 mM stock solution for later use; Propantheline Bromide was dissolved in acetonitrile to prepare a 1 mM stock solution as a positive control for later use.
(§13) To each well was added 2 μL of the stock solution of the test compound and the stock solution of the positive control such that the final concentrations were 5 KM and the concentration of the organic solvent was 0.5%. Each compound was prepared in duplicate, followed by incubation at 37° C. 50 μL of samples were taken from the reaction samples in equal amounts at 0, 30, 60, 120, 180 and 240 minutes, and 450 μL of cold acetonitrile containing an internal standard was added to terminate the reaction. […] 100 μL of the supernatants were transferred to a new plate, dilute with ultra-pure water, and analyzed by LC-MS/MS.
(§14) Data results were calculated according to peak area ratios.
(§15) The percentage of remaining compound for each time point was calculated as follows:
(§16) Remaining percentagemin(%)=peak area ratiosmin/peak area ratiomin×100%
(§17) where peak area ratios represents the peak area ratio of the test compound to the internal standard compound at t min; peak area ratiomin represents the peak area ratio of the test compound to the internal standard compound at 0 min (initial).

[8] = human, plasma
Description: as §11, §12, §13, §14, §15, §16, §17

Caco-2 cells = test: in vitro; conditions: Caco-2
Description: as §1, §2, §3, §4, §5

in vitro [9] = conditions: microsomes
Description: To examine the in vitro metabolic stability of the test compounds in liver microsomes of different species, representative compounds were selected, and their stability was evaluated by measuring the concentration of the test compounds in the incubation system using LC/MS/MS and calculating their intrinsic clearance in the microsome system.
The method is specifically as follows: each compound was first dissolved in DMSO to prepare a 200 μM working solution and added to the system solution at the time of testing to form a solution with a final concentration of 1 μM.
The microsomes were stored in a −80° C. freezer.
Preparation of incubation system: an incubation system was prepared as described in the table below.
25 μL, of NADPH or phosphate buffered saline was transferred to the incubation system described above, and 2 μL, of 200 μM of the test compound or verapamil was added. The sample with NADPH added was prepared in duplicate; the NADPH negative sample was prepared in single parallel. 30 μL, of suspension was taken at 0.5, 5, 15, 30 and 60 minutes. The reaction system was terminated by adding 180 μL, of acetonitrile containing an internal standard and vortexed for 10 min. […] 100 μL, of the supernatant was transferred to a feeding plate, and 100 μL, of purified water was added. The mixture was well mixed for UPLC-MS/MS analysis.
The results based on the data were obtained by calculation according to the peak area ratio, and the peak area was detected through an extracted ion chromatogram.
The slope value (k) was determined by linear fitting of the natural logarithm of drug elimination percentage over time.

T1 sequence (P01116 1-188 isoform P01116-2 G12C): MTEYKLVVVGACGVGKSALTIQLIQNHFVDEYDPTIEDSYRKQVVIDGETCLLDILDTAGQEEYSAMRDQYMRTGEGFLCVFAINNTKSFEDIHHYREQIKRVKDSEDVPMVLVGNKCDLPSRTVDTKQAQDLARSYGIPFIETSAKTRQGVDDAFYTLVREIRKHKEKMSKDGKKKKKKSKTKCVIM

Papp A→B at 2 h, 10 μM (in vitro [1]): 0.6 ×10⁻⁶ cm/s
Papp B→A at 2 h, 10 μM (in vitro [1]): 27.4 ×10⁻⁶ cm/s
SMILES: C=CC(=O)N1CCN(c2nc(=O)n(-c3c(C)ccnc3C(C)C)c3nc(-c4c(O)cccc4F)c(F)cc23)[C@@H](C)C1 [AMG510]

IC50 ([2]; Homo sapiens, MIA PaCa-2, 96 h, 3D culture, CellTiter-Glo 3D, read on day 4, read-out: MIA PaCa-2 (K-RAS G12C) IC50): 0.44 nM
IC50 ([3]; Homo sapiens, NCI-H1373, 96 h, 3D culture, CellTiter-Glo 3D, read on day 4, read-out: H1373 (K-RAS G12C) IC50): 0.32 nM
IC50 [4]: 4690 nM
IC50 (KRAS G12C protein): < 1000 nM
IC50 ([5]; Homo sapiens, NCI-H358, 96 h, 3D culture, CellTiter-Glo 3D, read on day 4, read-out: H358 (K-RAS G12C) IC50): 0.34 nM
Remaining percentage (%) 0 min ([7]; human plasma, 37° C., 0 min): 100.00%
Remaining percentage (%) 30 min ([7]; human plasma, 37° C., 30 min): 97.00%
Remaining percentage (%) 60 min ([7]; human plasma, 37° C., 60 min): 92.97%
Remaining percentage (%) 120 min ([7]; human plasma, 37° C., 120 min): 78.91%
Remaining percentage (%) 180 min ([7]; human plasma, 37° C., 180 min): 59.98%
Remaining percentage (%) 240 min ([7]; human plasma, 37° C., 240 min): 47.82%
half-life at 5 μM ([7]; human, plasma): 3.63 h
SMILES: [2H]C([2H])([2H])c1cccc2cccc(N3CCc4c(nc(OC[C@@H]5CCCN5C([2H])([2H])[2H])nc4N4CCN(C(=O)C=C)[C@@H](CC#N)C4)C3)c12 [Compound 17, 2-((S)-1-acryloyl-4-(7-(8-(methyl-d3)naphthalen-1-yl)-2-(((S)-1-(methyl-d3)pyrrolidin-2-yl)methoxy)-5,6,7,8-tetrahydropyrido[3,4-d]pyrimidin-4-yl)piperazin-2-yl)acetonitrile]
Selectivity (fold number of mutant vs. wild type) ([2]; PC-9 IC50 vs. MIA PaCa-2 IC50): 10659 fold
Selectivity (fold number of mutant vs. wild type) ([3]; PC-9 IC50 vs. H1373 IC50): 14656 fold
Selectivity (fold number of mutant vs. wild type) ([5]; PC-9 IC50 vs. H358 IC50): 13794 fold
Day 0 Tumor volume (mm^3) Vaverage ± SEM ([6]; Day 0 (at grouping, before administration), 15 mg/kg PO QD group): 151 ± 10 mm^3
Day 21 Tumor volume (mm^3) Vaverage ± SEM ([6]; Day 21, 15 mg/kg PO QD): 90 ± 12 mm^3
Tumor inhibition rate TGI (%) ([6]; Day 21, 15 mg/kg PO QD): 110.7%
Tumor regression ([6]; Day 21, 15 mg/kg PO QD): 8/8
Tumor regression ([6]; Day 21, 15 mg/kg PO QD, listed as compound 17): the tumors in all of the animals regressed
Day 0 Body weight (g) Waverage ± SEM ([6]; mouse, in vivo, po, 15 mg/kg): 22.6 ± 0.7 g

Papp A→B at 2 h, 10 μM (in vitro [1]): 0.25 ×10⁻⁶ cm/s
Papp B→A at 2 h, 10 μM (in vitro [1]): 16.4 ×10⁻⁶ cm/s
efflux ratio at 2 h, 10 μM (in vitro [1]): 65.2
SMILES: C[C@H]1O[C@@H](O[C@H]2[C@@H](O)C[C@H](O[C@H]3[C@@H](O)C[C@H](O[C@H]4CC[C@@]5(C)[C@H](CC[C@@H]6[C@@H]5C[C@@H](O)[C@]5(C)[C@@H](C7=CC(=O)OC7)CC[C@]65O)C4)O[C@@H]3C)O[C@@H]2C)C[C@H](O)[C@@H]1O [Digoxin]

t1/2 [8]: 1.608 h
Remaining percentage (%) 0 min ([8]; 0 h): 100.00%
Remaining percentage (%) 30 min ([8]; 0.5 h): 88.91%
Remaining percentage (%) 60 min ([8]; 1 h): 82.31%
Remaining percentage (%) 120 min ([8]; 2 h): 55.64%
Remaining percentage (%) 180 min ([8]; 3 h): 32.06%
Remaining percentage (%) 240 min ([8]; 4 h): 18.12%
Efflux ratio (Caco-2 cells): 16.31
CLint (μL/min/mg protein) (in vitro [9]; human): 54.30 μL/min/mg protein
t1/2 (in vitro [9]; human): 0.4263 h
CLint (μL/min/mg protein) (in vitro [9]; mouse): 74.97 μL/min/mg protein
t1/2 (in vitro [9]; mouse): 0.3082 h
SMILES: C=CC(=O)N1CCN(c2nc(OC[C@@H]3CCCN3C)nc3c2CCN(c2cccc4cccc(C)c24)C3)C[C@@H]1CC#N [MRTX-1257, reference compound]

Papp A→B at 2 h, 10 μM (in vitro [1]): 22.6 ×10⁻⁶ cm/s
Papp B→A at 2 h, 10 μM (in vitro [1]): 19.5 ×10⁻⁶ cm/s
efflux ratio at 2 h, 10 μM (in vitro [1]): 0.86
SMILES: COCCc1ccc(OCC(O)CNC(C)C)cc1 (centres unmarked) [Metoprolol]
